The text below walks through data of patent US11186577B2, “Vasopressin receptor antagonists and products and methods related thereto” (BlackThorn Therapeutics, Inc., priority 2017, dated 2021).

What is called IC50 is the point on the concentration scale where inhibition reaches its midpoint.

For test [1], the target named is human Arginine Vasopressin Receptor 1a (AVPR1a) (Homo sapiens (Human), UniProt P37288). As to the kind of experiment: Vasopressin V1A receptor antagonist assay (AVP-evoked calcium, FLIPR, CHO-AVPR1a cells). In kind it is cell-based. The following applies: read-out: V1a IC50. In outline: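 Antagonism measured as reduction of AVP (EC80, set each assay day) calcium response on FLIPR in dye-loaded CHO-AVPR1a cells. Compounds, 3 μM top in 10-point 1:3 dilution, in duplicate, added 15 min before agonist at 37° C.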
human Arginine Vasopressin Receptor 1a (AVPR1a), sequence (P37288 whole entry): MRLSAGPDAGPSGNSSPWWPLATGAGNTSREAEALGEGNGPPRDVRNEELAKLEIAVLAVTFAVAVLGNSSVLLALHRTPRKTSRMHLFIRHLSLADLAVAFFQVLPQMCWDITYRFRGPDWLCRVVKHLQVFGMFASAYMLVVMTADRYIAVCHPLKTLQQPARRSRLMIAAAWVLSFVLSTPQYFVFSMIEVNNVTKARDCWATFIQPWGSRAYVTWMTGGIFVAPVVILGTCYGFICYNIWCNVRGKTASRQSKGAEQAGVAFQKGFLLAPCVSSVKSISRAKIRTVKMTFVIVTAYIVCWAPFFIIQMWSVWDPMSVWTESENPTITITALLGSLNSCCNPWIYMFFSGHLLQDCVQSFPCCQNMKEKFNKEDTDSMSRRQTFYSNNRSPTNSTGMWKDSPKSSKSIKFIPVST

Test [2] has as its target human Oxytocin Receptor (hOTR) (Homo sapiens (Human), UniProt P30559). Briefly: Oxytocin receptor antagonist assay (oxytocin-evoked calcium, FLIPR, CHEM-1-hOTR cells). The test is classed as cell-based. As to conditions: read-out: OT IC50. The procedure, abridged: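 Oxytocin-evoked intracellular calcium rise measured by FLIPR^TETRA fluorescence (Calcium-6 dye, 3 min read) in CHEM-1-hOTR cells. Test compounds, 10-point 1:3 dilutions, were added 15 min at 37 °C before an EC80 oxytocin challenge (EC80 set each assay day); buffer HBSS with 20 mM HEPES.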

Some results are limits rather than exact numbers.

human Oxytocin Receptor (hOTR), sequence (P30559 whole entry): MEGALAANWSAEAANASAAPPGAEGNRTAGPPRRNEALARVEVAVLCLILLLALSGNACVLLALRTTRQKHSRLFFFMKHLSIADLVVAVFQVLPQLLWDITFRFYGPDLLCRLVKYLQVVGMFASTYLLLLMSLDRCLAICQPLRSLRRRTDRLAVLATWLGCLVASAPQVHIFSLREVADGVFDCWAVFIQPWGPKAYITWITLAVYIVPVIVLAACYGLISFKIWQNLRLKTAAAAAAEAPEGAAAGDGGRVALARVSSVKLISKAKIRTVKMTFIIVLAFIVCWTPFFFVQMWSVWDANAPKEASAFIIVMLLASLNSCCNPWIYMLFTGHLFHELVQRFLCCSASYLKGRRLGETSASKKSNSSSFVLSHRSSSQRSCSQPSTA

Take `CC(=O)N1Cc2cc(Cl)ccc2-n2c(nnc2C2CC3(C2)CN(c2ccc(F)cn2)C3)C1` [compound 64]: the values for the IC50 in test [1] and in test [2] were below 100 nM and above 1000 nM, respectively.

Consider `CCC(=O)N1Cc2cc(Cl)ccc2-n2c(nnc2C2CC3(C2)CN(c2ccccn2)C3)C1` [compound 67], for which the IC50 in test [1] is below 100 nM; in test [2], above 1000 nM.

For the compound `CCOC(=O)N1Cc2cc(Cl)ccc2-n2c(nnc2C2CC3(C2)CN(c2ccc(F)cn2)C3)C1` [compound 69], the IC50 in test [1] is below 100 nM; in test [2] it was 100 to 500 nM.

For the compound `COC(=O)N1Cc2cc(Cl)ccc2-n2c(nnc2C2CC3(C2)CN(c2ccccn2)C3)C1` [compound 70], the IC50 is below 100 nM in test [1] and 500 to 1000 nM in test [2].

As to `CC(C)C(=O)N1Cc2cc(Cl)ccc2-n2c(nnc2C2CC3(C2)CN(c2ccccn2)C3)C1` [compound 71], the IC50 in test [1] was below 100 nM; in test [2], above 1000 nM.

For `CCC(=O)N1Cc2cc(Cl)ccc2-n2c(nnc2C2CC3(C2)CN(c2ccc(F)cn2)C3)C1` [compound 72], the IC50 in test [1] was below 100 nM; in test [2], above 1000 nM.

Regarding `CC(CF)OC(=O)N1Cc2cc(Cl)ccc2-n2c(nnc2C2CC3(C2)CN(c2ccc(F)cn2)C3)C1` (stereo not shown) [compound 78], the IC50 in test [1] was below 100 nM; in test [2], 100 to 500 nM.

For the compound `O=C(OC(CF)CF)N1Cc2cc(Cl)ccc2-n2c(nnc2C2CC3(C2)CN(c2ccc(F)cn2)C3)C1` [compound 79], the IC50 was below 100 nM in test [1] and 100 to 500 nM in test [2].

For `O=C(N1Cc2cc(Cl)ccc2-n2c(nnc2C2CC3(C2)CN(c2cnccn2)C3)C1)C1(F)CC1` [compound 81], the IC50 in test [1] is below 100 nM; in test [2], above 1000 nM.

`O=C(OC1CC1)N1Cc2cc(Cl)ccc2-n2c(nnc2C2CC3(C2)CN(c2ccc(F)cn2)C3)C1` [compound 90]: the values for the IC50 in test [1] and in test [2] were below 100 nM and 100 to 500 nM, respectively.

Take `O=C(N1Cc2cc(Cl)ccc2-c2c(C3CC4(C3)CN(c3cccnn3)C4)noc2C1)C(F)(F)F` [compound 105]: the IC50 was below 100 nM in test [1] and 100 to 500 nM in test [2].

Take `O=C(C(F)F)N1Cc2cc(Cl)ccc2-n2c(nnc2C2CC3(C2)CN(c2ccccn2)C3)C1` [compound 122]: the IC50 in test [1] was below 100 nM; in test [2], above 1000 nM.

Consider `O=C(C(F)F)N1Cc2cc(Cl)ccc2-n2c(nnc2C2CC3(C2)CN(C(=O)C2(F)CC2)C3)C1` [compound 134], for which the IC50 in test [1] is below 100 nM; in test [2] it was above 1000 nM.

`O=C(C1CC1)N1CC2(CC(c3nnc4n3-c3ccc(Cl)cc3CN(C(=O)C3(F)CC3)C4)C2)C1` [compound 136]: the IC50 in test [1] is below 100 nM; in test [2], above 1000 nM.

For the compound `COC(=O)N1Cc2cc(Cl)ccc2-n2c(C3CC4(C3)CN(c3ccc(F)cn3)C4)nnc2C1C` (stereo not shown) [compound 142, methyl 8-chloro-1-(2-(5-fluoropyridin-2-yl)-2-azaspiro[3.3]heptan-6-yl)-4-methyl-4H-benzo[f][1,2,4]triazolo[4,3-a][1,4]diazepine-5(6H)-carboxylate], the concentration for half-maximal inhibition (IC50) was below 100 nM in test [1] and 500 to 1000 nM in test [2].

With `CC(C)OC(=O)N1Cc2cc(Cl)ccc2-n2c(nnc2C2CC3(C2)CN(C(=O)C2CC2)C3)C1` [compound 153], the figures for the IC50 in test [1] and in test [2] were below 100 nM and above 1000 nM, respectively.

Regarding `CC(C)OC(=O)N1Cc2cc(Cl)ccc2-n2c(C3CC4(C3)CN(c3cnccn3)C4)nnc2C1C` (stereo not shown) [compound 164], the results for the IC50 in test [1] and in test [2] were below 100 nM and 100 to 500 nM, respectively.

As for `COC(=O)N1Cc2cc(Cl)ccc2-n2c(C3CC4(C3)CN(c3cnccn3)C4)nnc2C1C` (stereo not shown) [compound 165], the values for the IC50 in test [1] and in test [2] were below 100 nM and 500 to 1000 nM, respectively.

For `COC(=O)N1Cc2cc(Cl)ccc2-n2c(C3CC4(C3)CN(c3ncccn3)C4)nnc2C1C` (stereo not shown) [compound 166], the IC50 in test [1] was below 100 nM; in test [2] it was above 1000 nM.

As to `CC(C)OC(=O)N1Cc2cc(Cl)ccc2-n2c(C3CC4(C3)CN(c3ncccn3)C4)nnc2C1C` (stereo not shown) [compound 167], the IC50 in test [1] was below 100 nM; in test [2] it was above 1000 nM.

For the compound `CCOC(=O)N1Cc2cc(Cl)ccc2-n2c(C3CC4(C3)CN(c3ncccn3)C4)nnc2C1C` (stereo not shown) [compound 168], the IC50 is below 100 nM in test [1] and above 1000 nM in test [2].

With `CCOC(=O)N1Cc2cc(Cl)ccc2-n2c(C3CC4(C3)CN(c3ccc(F)cn3)C4)nnc2C1C` (stereo not shown) [compound 169], the IC50 in test [1] is below 100 nM; in test [2], 100 to 500 nM.

For `COC(=O)N1Cc2cc(Cl)ccc2-n2c(C3CC4(C3)CN(c3ncc(F)cn3)C4)nnc2C1C` (stereo not shown) [compound 170], the IC50 in test [1] was below 100 nM; in test [2] it was above 1000 nM.

Regarding `CC1c2nnc(C3CC4(C3)CN(c3ncccn3)C4)n2-c2ccc(Cl)cc2CN1C(=O)OC1CC1` (stereo not shown) [compound 171], the results for the IC50 in test [1] and in test [2] were below 100 nM and above 1000 nM, respectively.

With `CCOC(=O)N1Cc2cc(Cl)ccc2-n2c(C3CC4(C3)CN(c3ncc(F)cn3)C4)nnc2C1C` (stereo not shown) [compound 172], the IC50 in test [1] is below 100 nM; in test [2] it was above 1000 nM.

For the compound `CC1c2nnc(C3CC4(C3)CN(c3ncc(F)cn3)C4)n2-c2ccc(Cl)cc2CN1C(=O)OC1(C)CC1` (stereo not shown) [compound 173], the IC50 was below 100 nM in test [1] and 100 to 500 nM in test [2].

With `CC1c2nnc(C3CC4(C3)CN(c3ccc(F)cn3)C4)n2-c2ccc(Cl)cc2CN1C(=O)C1(F)CC1` (stereo not shown) [compound 174], the IC50 in test [1] was below 100 nM; in test [2], 500 to 1000 nM.

Regarding `CC1c2nnc(C3CC4(C3)CN(c3ncccn3)C4)n2-c2ccc(Cl)cc2CN1C(=O)C1(F)CC1` (stereo not shown) [compound 175], the IC50 in test [1] was below 100 nM; in test [2], above 1000 nM.

`CC1c2nnc(C3CC4(C3)CN(c3cnccn3)C4)n2-c2ccc(Cl)cc2CN1C(=O)C1(F)CC1` (stereo not shown) [compound 177]: the values for the IC50 in test [1] and in test [2] were below 100 nM and above 1000 nM, respectively.

As to `COC(=O)N1Cc2cc(Cl)ccc2-n2c(C3CC4(C3)CN(c3cccc(C)n3)C4)nnc2C1C` (stereo not shown) [compound 180], the IC50 was below 100 nM in test [1] and 100 to 500 nM in test [2].

For `COC(=O)N1Cc2cc(Cl)ccc2-n2c(C3CC4(C3)CN(c3ncccc3F)C4)nnc2C1C` (stereo not shown) [compound 182], the IC50 was below 100 nM in test [1] and 500 to 1000 nM in test [2].

Turning to `CC1c2nnc(C3CC4(C3)CN(c3ncc(F)cn3)C4)n2-c2ccc(Cl)cc2CN1C(=O)OC(CF)CF` (stereo not shown) [compound 194], the figures for the IC50 in test [1] and in test [2] were below 100 nM and above 1000 nM, respectively.
